One assay relates to human active caspase-3. Kind of assay: Active caspase-3 level (ELISA) in OVCAR-4 cells. In kind it is cell-based. To be noted: OVCAR-4 cells treated at IC50 for 24 h. How it is done:
The level of human active caspase-3 protein was evaluated using Invitrogen (Catalog KHO1091) ELISA kit. The manufacturer’s instructions were followed in the following procedures. Add 100 μL of the standard diluent buffer to the zero standard wells. Add 100 μL of standards and controls or diluted samples to the appropriate microtitre wells. Cover wells with and incubate for 2 h at room temperature. Thoroughly aspirate or decant solution from wells and discard the liquid. Pipette 100 μL of caspase-3 (active) detection antibody solution into each well. Cover plate and incubate for 1 h at room temperature. Add 100 μL Anti-Rabbit IgG HRP working solution to each well. Cover wells with the plate cover and incubate for 30 min at room temperature. Add 100 μL of stabilised chromogen to each well. The liquid in the wells will begin to turn blue. Incubate for 30 min at room temperature. Stop solution has been added to each well. The solution in the wells should change from blue to yellow. Read the plate within 2 h after adding the stop solution. Use a curve fitting software to generate the standard curve.
EGFR and ErbB2 tyrosine kinase inhibitors are well known to potentiate the intrinsic apoptotic pathway via increase in caspase-3 enzyme activity[34]^,[35].
Background: In an ELISA, binding on a coated surface is turned into a signal by an enzyme label.

The subject of assay [1] is OVCAR-4 cells. Kind of assay: Annexin V-FITC/PI apoptosis assay. In kind it is cell-based, human. Here is the method:
Annexin V fluorescein isothiocyanate (FITC)/PI apoptosis detection kit (BD Biosciences) was used according to the manufacturer’s instructions to measure the apoptotic activity of compound 7d. OVCAR-4 cells were incubated with Annexin V-FITC. […] The cells then were collected by trypsinisation and 0.5 × 10^6 cells were washed twice with PBS and stained with 5 μL Annexin V-FITC and 5 μL PI in 1 × binding buffer for 15 min at room temperature in the dark. Analyses were performed using FACS Calibur flow cytometer (BD Biosciences, San Jose, CA).
The apoptotic activity of compound 7d was further studied using Annexin V-FITC assay, which includes dual staining using Annexin V, a Ca^2+-dependent protein, and Propidium iodide (PI). Annexin V binds to phosphatidylserine (PS) expressed only on the surface of the apoptotic cells and fluoresces green after interacting with the fluorochrome labelled annexin-V. On the other hand, PI stains DNA and enters only dead cells. This assay can give a differential analysis to the percentages of living, early apoptotic, late apoptotic and necrotic cells. […] Moreover, a significant increase in the percentage of Annexin-V positive cells (almost 9 folds more than control) occurred indicating an early apoptosis (lower right quadrant). In addition, an increase by 7 folds more than control in the percentage of PI positive cells (upper left quadrant) indicating necrotic cells. Some treated cells were in a late apoptotic stage (upper right quadrant), this was indicated by the significant increase in the percentage of Annexin V positive, PI positive cells (16 folds more than control).

Assay [2] has as its system OVCAR-4 cells. Put plainly: Cell cycle analysis by flow cytometry (PI). In kind it is cell-based, human. Here is the method: After treatment, the cells were washed twice with ice-cold PBS, collected by centrifugation, and fixed in ice-cold 70% (v/v) ethanol, washed with PBS, re-suspended with 0.1 mg/mL RNase, stained with […] propidium iodide (PI), and analysed by flow cytometry using FACS Calibur (Becton Dickinson)[31]. The cell cycle distributions were calculated using Cell-Quest software (Becton Dickinson).
In general terms: Flow cytometry measures light scatter and fluorescence of single cells or particles in a stream.

The subject of a further assay is NCI-H226. Kind of assay: MTT cell viability assay. In kind it is cell-based. The note with it: Homo sapiens, NCI-H226 lung cancer, 48 h, mean ± SD of three experiments, read-out: IC50 (concentration required for 50% inhibition of cell viability). How it is done: (§1) Cell Line cells were obtained from American Type Culture Collection, cells were cultured using Dulbecco's Modified Eagle's medium (DMEM) (Invitrogen/Life Technologies) supplemented with 10% foetal bovine serum (FBS) (Hyclone), 10 μg/mL of insulin (Sigma), and 1% penicillin-streptomycin. All of the other chemicals and reagents were from Sigma, or Invitrogen. Plate cells (cells density 1.2 – 1.8 × 10,000 cells/well) in a volume of 100 µL complete growth medium and 100 μL of the tested compound per well in a 96-well plate for 24 h before the MTT assay.
Remove culture medium to a centrifuge tube. […] Add 2.0 to 3.0 ml of Trypsin EDTA solution to flask and observe cells under an inverted microscope until cell layer is dispersed. Add 6 to 8 ml of complete growth medium and aspirate cells by gently pipetting. […]
The 3–(4, 5-dimethylthiazol-2-yl)-2,5-diphenyltetrazolium bromide (MTT) method[30] of monitoring in vitro cytotoxicity is well suited for use with multiwell plates. […] The number of living cells in the presence or absence (control) of the various test compounds is directly proportional to the intensity of the blue colour, measured by spectrophotometry using (ROBONIK P2000 Spectrophotometer) at a wavelength of 570 nm. Measure the background absorbance of multiwell plates at 690 nm and subtract from the 570 nm measurement. […]
Background: Formazan colour is commonly taken as a measure of viable cells.

The subject of a further assay is ACHN. Kind of assay: MTT cell viability assay. In kind it is cell-based, human. Here is the method: as §1
(§2) Remove culture medium to a centrifuge tube. […] Add 2.0 to 3.0 ml of Trypsin EDTA solution to flask and observe cells under an inverted microscope until cell layer is dispersed. Add 6 to 8 ml of complete growth medium and aspirate cells by gently pipetting. Transfer the cell suspension to the centrifuge tube with the medium and centrifuge for 5 to 10 min. Discard the supernatant. Resuspend the cell pellet in fresh growth medium. Add appropriate aliquots of the cell suspension to new culture vessels. Incubate cultures at 37 °C for 24 h. After treatment of cells with the serial concentrations of the compound to be tested incubation is carried out for 48 h at 37 °C, then the plates are to be examined under the inverted microscope and proceed for the MTT assay.
(§3) The 3–(4, 5-dimethylthiazol-2-yl)-2,5-diphenyltetrazolium bromide (MTT) method[30] of monitoring in vitro cytotoxicity is well suited for use with multiwell plates. The assessment of cell population growth is based on the capability of living cells to reduce the yellow product MTT to a blue product, formazan, by a reduction reaction occurring in the mitochondria. The five cell lines were incubated for 24 h in 96-microwell plates. The number of living cells in the presence or absence (control) of the various test compounds is directly proportional to the intensity of the blue colour, measured by spectrophotometry using (ROBONIK P2000 Spectrophotometer) at a wavelength of 570 nm. Measure the background absorbance of multiwell plates at 690 nm and subtract from the 570 nm measurement. Five concentrations ranging from 0.01 μM to 100 μM (with semi-log decrease in concentration) were tested for each of the compounds under study. Each experiment was carried out in triplicate. The IC50 values [the concentration required for 50% inhibition of cell viability] were calculated using sigmoidal dose response curve-fitting models.

The test system of another assay is NCI-H460. Kind of assay: MTT cell viability assay. In kind it is cell-based, human. How it is done:
as §1, §2, §3

A further assay deals with OVCAR-4. Kind of assay: MTT cell viability assay. In kind it is cell-based, human. How it is done: as §1, §2, §3
The mark [3] stands for this setting: OVCAR-4, 7d at IC50 (1.74 μM), 24 h.

Values joined by “and” are separate entries in the source; they are usually repeats but may differ in a detail not shown here. Identical values can stand only once.

For `Cc1nn(-c2ccc(F)cc2)c2ncnc(Nc3ccc(F)c(Cl)c3)c12` [Compound 7d, N-(3-Chloro-4-fluorophenyl)-1–(4-fluorophenyl)-3-methyl-1H-pyrazolo[3,4-d] pyrimidin-4-amine], the “Increase in the level of active caspase-3 compared to control” value with human active caspase-3 was 10.8 fold and 11 fold. The Caspase3 conc. in the assay on human active caspase-3 (mean ± SD of three experiments) is 568.50 ± 14.0 pg/mL. Further, the “%Apoptosis Early” value in the assay with OVCAR-4 cells [1] (OVCAR-4, 7d at IC50 (1.74 μM), 24 h, lower right quadrant) was 7.52%. Further, the “%Necrosis” value in the assay with OVCAR-4 cells [1] (OVCAR-4, 7d at IC50 (1.74 μM), 24 h, upper left quadrant) stood at 2.88%. For the same compound, in the assay on OVCAR-4 cells [1] (OVCAR-4, 7d at IC50 (1.74 μM), 24 h, upper right quadrant), the “%Apoptosis Late” value came out at 11.31%. Besides, in the assay with OVCAR-4 cells [1] (OVCAR-4, at IC50, 24 h), the “Increase in percentage of Annexin V positive, PI positive cells (late apoptosis) versus control” value turned out to be 16 folds; the “Increase in percentage of Annexin-V positive cells (early apoptosis) versus control” value is given as roughly 9 folds; the “Increase in percentage of PI positive cells (necrotic cells) versus control” value is given as 7 folds. Besides, in the assay on OVCAR-4 cells [2] (setting [3]), the “Cell cycle distribution %Apoptosis (pre-G1)” value was determined as 21.71%, the “Cell cycle distribution %G0/G1” value is 29.77%, the “Cell cycle distribution %G2/M” value came out at 36.44% and the “Cell cycle distribution %S” value amounted to 33.79%. Besides, in the assay with OVCAR-4 cells [2] (OVCAR-4, at IC50, 24 h), the “Increase in cells accumulated in pre-G1 phase compared to control” value is reported as roughly 11 folds and the “Increase in percentage of cells at G2/M phases compared to control” value is on record as 5 folds. The IC50 in the assay with NCI-H226 is 17.4 ± 2.13 µM. Besides, in the assay on ACHN (ACHN, from IC50 values), the “Potency relative to Erlotinib (fold more potent)” value was 2.2 fold. In addition, the IC50 in the assay with ACHN (Homo sapiens, ACHN renal cancer, MTT, 48 h, mean ± SD of three experiments, read-out: IC50 (concentration required for 50% inhibition of cell viability)) came to 5.53 ± 0.31 µM. The IC50 in the assay with NCI-H460 (Homo sapiens, NCI-H460 lung cancer, MTT, 48 h, mean ± SD of three experiments, read-out: IC50 (concentration required for 50% inhibition of cell viability)) is 4.44 ± 0.26 µM. In the assay on NCI-H460 (NCI-H460, from IC50 values), the “Potency relative to Erlotinib (fold more potent)” value was 1.9 fold. Besides, in the assay on OVCAR-4 (Homo sapiens, OVCAR-4 ovarian cancer, MTT, 48 h, mean ± SD of three experiments, read-out: IC50 (concentration required for 50% inhibition of cell viability)), the IC50 stood at 1.74 ± 0.06 µM. Besides, the “Potency relative to Erlotinib (fold more potent)” value in the assay on OVCAR-4 (OVCAR-4, from IC50 values) was 1.6 fold.

(Values after publication PMC6352943, “Novel pyrazolo[3,4-d]pyrimidines: design, synthesis, anticancer activity, dual EGFR/ErbB2 receptor tyrosine kinases inhibitory activity, effects on cell cycle profile and caspase-3-mediated apoptosis” (Journal of Enzyme Inhibition and Medicinal Chemistry, 2019).)
